# Data published in paper PMC9138389, “The Tarantula Toxin ω-Avsp1a Specifically Inhibits Human CaV3.1 and CaV3.3 via the Extracellular S3-S4 Loop of the Domain 1 Voltage-Sensor” (Biomedicines, 2022).
# Where a SMILES comes first, the peptide text is derived from it. Bridges are numbered along the chain shown (N, C = ends).
# Legend:
# [1] = system: patients; conditions: used clinically as anti-epileptic drugs; cited from earlier work
# Description: (§1) It is well documented that the three CaV3 subtypes participate differentially in a variety of physiological and pathological conditions. Selective pharmacological inhibition is therefore important for dissecting the pathophysiological functions of CaV3 channel subtypes and for the development of therapeutically useful subtype-selective inhibitors.
# [2] = system: CaV3; conditions: cited from earlier work
# Description: as §1
# [3] = target: T1, CaV3.1 (Homo sapiens, UniProt O43497); assay: Whole-cell voltage-clamp of CaV3.1 expressed in HEK-293 cells; assay type: cell-based
# T1 construct: expressed in transfected cells; host or cells: HEK-293
# Protocol: (§2) Human embryonic kidney (HEK) 293 cells were grown in Dulbecco’s modified Eagle’s medium (DMEM) containing 5% fetal bovine serum and penicillin/streptomycin at 37 °C in a 5% CO2 incubator. Cells were transiently transfected with 3 μg plasmid DNA using the calcium-phosphate method. Plasmids of Cav3.1, Cav3.2 or Cav3.3 were separately transfected into three individual plates of HEK-293 cells. After transfection, cells were incubated at 37 °C for 48 h prior to whole-cell voltage-clamp recordings.
# (§3) Patch pipettes with a tip resistance of 2.8~3.5 MΩ were pulled from borosilicate glass capillary tubes (Warner Instruments, Holliston, MA, USA) using a P-97 Flaming-Brown type micropipette puller (Sutter Instrument, Novato, CA, USA). Ionic currents were recorded using an Axon Multiclamp 700B microelectrode amplifier (Molecular Devices, San Jose, CA, USA). The sampling frequency for acquisition was 50 kHz and data were low-pass filtered at 2 kHz. Voltage and current commands and digitisation of membrane voltages and currents were controlled using a Digidata 1440A interfaced with Clampex 10.4 (Molecular Devices, San Jose, CA, USA). Data were analysed using pCLAMP10.4 software (Molecular Devices, San Jose, CA, USA).
# (§4) To measure CaV3 currents, cells were incubated with the following bath solution (in mM): 145 TEA-Cl, 5 CaCl2, 3 CsCl, 1 MgCl2, 5 glucose, and 10 HEPES, adjusted to pH 7.4 with TEA-OH, osmolarity ~300 mOsm. The pipette solution was as follows (in mM): 130 CsCl, 20 HEPES, 10 EGTA, 5 MgCl2, 3 Mg-ATP, and 0.3 Tris-GTP, adjusted to pH 7.3 with CsOH, osmolarity ~310 mOsm. All recordings were performed at room temperature (21–24 °C). For Cav3.1- or Cav3.2-transfected cells, their membrane potentials were initially held at −90 mV for 20 ms and then depolarized to −30 mV for 150 ms. […] The peak values of Cav3 currents were recorded before and after addition of venom fractions or synthetic peptide. […] The inhibition was calculated by dividing the toxin-reduced peak amplitudes by the peak amplitudes before additions of the toxin.
# [4] = target: T2, CaV3.2 (Homo sapiens, UniProt O95180); assay: Whole-cell voltage-clamp of CaV3.2 expressed in HEK-293 cells; assay type: cell-based
# T2 construct: expressed in transfected cells; host or cells: HEK-293
# T2 sequence (O95180 whole entry): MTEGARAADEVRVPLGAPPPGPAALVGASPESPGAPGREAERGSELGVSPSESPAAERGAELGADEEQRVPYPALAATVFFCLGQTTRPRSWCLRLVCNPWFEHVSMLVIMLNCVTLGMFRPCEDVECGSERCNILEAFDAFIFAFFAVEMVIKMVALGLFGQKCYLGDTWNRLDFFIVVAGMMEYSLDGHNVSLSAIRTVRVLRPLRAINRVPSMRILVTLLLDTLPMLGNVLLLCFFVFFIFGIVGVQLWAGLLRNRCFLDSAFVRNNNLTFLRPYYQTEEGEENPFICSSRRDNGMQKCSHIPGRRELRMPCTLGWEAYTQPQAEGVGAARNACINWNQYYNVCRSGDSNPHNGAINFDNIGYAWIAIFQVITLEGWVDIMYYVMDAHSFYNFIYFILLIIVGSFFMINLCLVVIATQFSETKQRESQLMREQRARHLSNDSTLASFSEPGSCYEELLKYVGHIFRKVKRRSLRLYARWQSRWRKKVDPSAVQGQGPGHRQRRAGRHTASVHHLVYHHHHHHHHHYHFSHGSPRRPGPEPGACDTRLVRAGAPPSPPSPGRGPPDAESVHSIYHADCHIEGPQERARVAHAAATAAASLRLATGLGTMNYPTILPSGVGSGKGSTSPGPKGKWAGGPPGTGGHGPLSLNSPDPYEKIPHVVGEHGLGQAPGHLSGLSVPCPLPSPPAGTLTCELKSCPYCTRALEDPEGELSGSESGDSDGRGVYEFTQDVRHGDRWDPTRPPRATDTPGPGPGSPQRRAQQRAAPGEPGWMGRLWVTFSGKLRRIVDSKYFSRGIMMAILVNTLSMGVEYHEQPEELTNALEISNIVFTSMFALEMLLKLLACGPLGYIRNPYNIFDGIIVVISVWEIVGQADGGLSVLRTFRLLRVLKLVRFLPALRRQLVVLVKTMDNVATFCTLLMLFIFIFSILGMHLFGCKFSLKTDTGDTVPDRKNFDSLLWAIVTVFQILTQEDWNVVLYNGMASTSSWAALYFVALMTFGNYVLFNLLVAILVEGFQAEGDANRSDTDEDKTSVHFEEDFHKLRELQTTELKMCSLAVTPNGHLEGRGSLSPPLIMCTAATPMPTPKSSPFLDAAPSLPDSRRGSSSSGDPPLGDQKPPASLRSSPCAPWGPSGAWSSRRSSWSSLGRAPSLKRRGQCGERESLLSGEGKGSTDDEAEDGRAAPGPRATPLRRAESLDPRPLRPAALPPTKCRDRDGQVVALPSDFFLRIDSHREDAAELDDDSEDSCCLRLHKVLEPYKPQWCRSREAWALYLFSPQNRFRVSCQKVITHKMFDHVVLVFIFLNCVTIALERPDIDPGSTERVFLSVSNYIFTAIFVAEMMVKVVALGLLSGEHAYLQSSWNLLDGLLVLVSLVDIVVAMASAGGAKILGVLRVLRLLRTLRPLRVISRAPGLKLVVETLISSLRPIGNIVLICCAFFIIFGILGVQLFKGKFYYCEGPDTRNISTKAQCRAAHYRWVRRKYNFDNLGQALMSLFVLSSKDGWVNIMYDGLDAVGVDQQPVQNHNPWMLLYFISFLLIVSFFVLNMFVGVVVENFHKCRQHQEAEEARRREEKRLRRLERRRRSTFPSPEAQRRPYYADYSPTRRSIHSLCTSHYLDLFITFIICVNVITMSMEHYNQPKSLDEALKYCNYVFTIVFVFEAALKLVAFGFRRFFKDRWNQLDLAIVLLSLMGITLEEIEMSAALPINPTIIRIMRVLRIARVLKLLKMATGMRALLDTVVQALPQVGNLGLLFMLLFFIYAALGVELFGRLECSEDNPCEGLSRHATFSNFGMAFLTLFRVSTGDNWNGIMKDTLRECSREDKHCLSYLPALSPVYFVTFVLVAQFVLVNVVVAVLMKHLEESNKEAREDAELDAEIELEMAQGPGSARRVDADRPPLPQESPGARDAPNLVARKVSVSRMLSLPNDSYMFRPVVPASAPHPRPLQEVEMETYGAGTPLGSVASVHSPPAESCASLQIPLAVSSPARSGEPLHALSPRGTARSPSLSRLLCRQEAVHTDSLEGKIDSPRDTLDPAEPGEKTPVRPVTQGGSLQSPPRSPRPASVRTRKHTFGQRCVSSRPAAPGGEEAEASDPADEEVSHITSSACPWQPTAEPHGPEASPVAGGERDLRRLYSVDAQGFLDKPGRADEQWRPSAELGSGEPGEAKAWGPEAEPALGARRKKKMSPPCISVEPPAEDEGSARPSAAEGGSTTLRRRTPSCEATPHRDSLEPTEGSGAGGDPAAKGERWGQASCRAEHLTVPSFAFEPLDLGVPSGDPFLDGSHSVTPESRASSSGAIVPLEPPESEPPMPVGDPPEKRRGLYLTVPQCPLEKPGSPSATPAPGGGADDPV
# Protocol: as §2, §3, §4
# [5] = Solubility limit in electrophysiology; assay type: physicochemical; conditions: synthetic ω-Avsp1a; working concentration could not be increased above 25 μM
# [6] = target: T3, CaV3.3 (Homo sapiens, UniProt Q9P0X4); assay: Whole-cell voltage-clamp of CaV3.3 expressed in HEK-293 cells; assay type: cell-based
# T3 construct: expressed in transfected cells; host or cells: HEK-293
# T3 sequence (Q9P0X4 whole entry): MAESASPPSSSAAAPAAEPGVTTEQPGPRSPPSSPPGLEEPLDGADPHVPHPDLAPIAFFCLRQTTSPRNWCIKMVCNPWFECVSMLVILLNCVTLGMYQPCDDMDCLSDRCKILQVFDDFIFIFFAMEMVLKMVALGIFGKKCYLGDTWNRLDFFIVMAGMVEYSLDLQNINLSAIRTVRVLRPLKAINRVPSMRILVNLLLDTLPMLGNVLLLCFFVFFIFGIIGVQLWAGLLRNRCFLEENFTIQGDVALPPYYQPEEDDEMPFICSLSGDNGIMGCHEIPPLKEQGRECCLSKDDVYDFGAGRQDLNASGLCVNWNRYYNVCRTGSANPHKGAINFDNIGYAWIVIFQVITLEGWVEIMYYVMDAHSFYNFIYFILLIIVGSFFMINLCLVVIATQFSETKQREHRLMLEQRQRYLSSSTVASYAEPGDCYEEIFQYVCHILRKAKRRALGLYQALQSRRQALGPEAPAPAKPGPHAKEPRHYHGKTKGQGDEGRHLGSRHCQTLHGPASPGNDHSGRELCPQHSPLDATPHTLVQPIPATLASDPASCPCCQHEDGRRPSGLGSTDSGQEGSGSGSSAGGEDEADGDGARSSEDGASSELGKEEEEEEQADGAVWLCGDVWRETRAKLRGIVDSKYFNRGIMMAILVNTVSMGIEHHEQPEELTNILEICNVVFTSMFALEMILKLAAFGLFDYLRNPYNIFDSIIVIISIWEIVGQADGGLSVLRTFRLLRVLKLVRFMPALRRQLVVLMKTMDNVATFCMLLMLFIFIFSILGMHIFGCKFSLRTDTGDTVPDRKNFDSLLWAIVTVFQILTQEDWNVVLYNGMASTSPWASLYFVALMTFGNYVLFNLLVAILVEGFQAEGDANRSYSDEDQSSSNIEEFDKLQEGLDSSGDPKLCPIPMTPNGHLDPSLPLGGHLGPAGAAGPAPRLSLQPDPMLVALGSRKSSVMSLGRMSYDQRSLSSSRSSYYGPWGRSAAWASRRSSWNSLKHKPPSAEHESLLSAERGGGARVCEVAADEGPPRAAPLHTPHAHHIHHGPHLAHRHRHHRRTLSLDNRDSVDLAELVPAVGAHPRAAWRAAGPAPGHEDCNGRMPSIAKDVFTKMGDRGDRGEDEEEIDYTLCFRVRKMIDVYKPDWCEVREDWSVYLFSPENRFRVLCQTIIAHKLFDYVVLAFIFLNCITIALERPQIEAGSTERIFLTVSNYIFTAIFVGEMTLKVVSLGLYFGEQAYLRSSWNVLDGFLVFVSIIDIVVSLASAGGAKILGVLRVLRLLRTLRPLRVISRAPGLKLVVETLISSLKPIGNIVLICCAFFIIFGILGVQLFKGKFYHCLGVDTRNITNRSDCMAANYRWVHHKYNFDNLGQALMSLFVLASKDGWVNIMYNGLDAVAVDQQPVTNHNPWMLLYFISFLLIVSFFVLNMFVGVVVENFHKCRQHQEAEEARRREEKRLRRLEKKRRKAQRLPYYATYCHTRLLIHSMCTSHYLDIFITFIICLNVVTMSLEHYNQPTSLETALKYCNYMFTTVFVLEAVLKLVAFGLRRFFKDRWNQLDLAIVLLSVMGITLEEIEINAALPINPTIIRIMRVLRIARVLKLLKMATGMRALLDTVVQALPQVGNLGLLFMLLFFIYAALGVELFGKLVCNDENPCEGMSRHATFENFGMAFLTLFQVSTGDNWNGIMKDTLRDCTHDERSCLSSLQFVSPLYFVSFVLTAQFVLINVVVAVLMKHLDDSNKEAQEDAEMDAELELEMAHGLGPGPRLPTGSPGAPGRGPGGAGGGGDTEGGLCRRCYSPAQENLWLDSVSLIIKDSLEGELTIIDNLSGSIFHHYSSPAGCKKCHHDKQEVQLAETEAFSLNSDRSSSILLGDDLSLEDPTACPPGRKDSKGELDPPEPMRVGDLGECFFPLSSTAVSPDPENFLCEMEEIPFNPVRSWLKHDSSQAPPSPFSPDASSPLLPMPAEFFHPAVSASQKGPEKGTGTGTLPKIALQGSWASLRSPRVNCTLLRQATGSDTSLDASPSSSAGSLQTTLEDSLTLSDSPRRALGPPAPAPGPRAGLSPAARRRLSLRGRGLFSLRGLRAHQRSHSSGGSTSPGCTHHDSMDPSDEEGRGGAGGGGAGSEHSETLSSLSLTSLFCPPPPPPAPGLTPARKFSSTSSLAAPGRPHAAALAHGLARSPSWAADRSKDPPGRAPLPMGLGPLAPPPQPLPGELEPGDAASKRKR
# Protocol: as §2, §3, §4
# [7] = synthetic ω-Avsp1a, 10, 5, 1, and 0.1 μM, Hill equation fit, HEK-293
smiles,measurement,setting,value
NS(=O)(=O)Cc1noc2ccccc12 [zonisamide],clinical effectiveness as anti-epileptic,[1],not effective in all patients
same,CaV3 subtype specificity,[2],not subtype-specific
CCC1(C)CC(=O)NC1=O (centres unmarked) [ethosuximide],clinical effectiveness as anti-epileptic,[1],not effective in all patients
same,CaV3 subtype specificity,[2],not subtype-specific
"CC(C)C[C@@H]1NC(=O)[C@H](Cc2ccccc2)NC(=O)[C@H](CCCCN)NC(=O)[C@H](Cc2c[nH]cn2)NC(=O)[C@@H](NC(=O)[C@H](CC(=O)O)NC(=O)CN)CSSC[C@@H]2NC(=O)[C@@H]3CSSC[C@@H](C(=O)N[C@H](C(=O)N[C@@H](Cc4c[nH]c5ccccc45)C(=O)N[C@@H](CC(=O)O)C(=O)N[C@@H](Cc4c[nH]c5ccccc45)C(=O)N[C@H](C(=O)N[C@H](C(N)=O)C(C)C)[C@@H](C)O)C(C)C)NC(=O)[C@H](Cc4c[nH]c5ccccc45)NC(=O)CNC(=O)[C@H](Cc4c[nH]cn4)NC(=O)[C@H](CCCCN)NC(=O)[C@H](CCCNC(=N)N)NC(=O)[C@H](CO)NC(=O)[C@H](CSSC[C@H](NC(=O)[C@H](Cc4c[nH]c5ccccc45)NC(=O)CNC1=O)C(=O)N[C@@H](CCCNC(=N)N)C(=O)NCC(=O)N[C@@H](CCC(=O)O)C(=O)N1CCC[C@H]1C(=O)N[C@@H](CC(=O)O)C(=O)N1CCC[C@H]1C(=O)N3)NC(=O)[C@H](CO)NC(=O)[C@H](CC(C)C)NC(=O)[C@H](Cc1c[nH]cn1)NC(=O)[C@H](CCC(=O)O)NC2=O [ω-Avsp1a, ω-theraphotoxin-Avsp1a] (H-GDCHKFLGWCRGEPDPCCEHLSCSRKHGWCVWDWTV-NH2; disulfide 3-18, 10-23, 17-30)",inhibition at 4.1 µM,"[3]; HEK293, pH 7.4, native ω-Avsp1a, 4.1 μM, HEK-293, whole-cell, -90 to -30 mV, room temperature (21–24 °C), pH 7.4, 5 mM CaCl2, n = 5, read-out: current inhibition",90%
same,inhibition at 10 µM,"[3]; HEK293, synthetic ω-Avsp1a, 10 μM, HEK-293, whole-cell, -90 to -30 mV, n = 9, read-out: current inhibition",90%
same,IC50,[3]; [7],5.06 ± 0.16 µM
same,IC50,[4],> 25 µM
same,inhibition at 4.1 µM,"[4]; HEK293, pH 7.4, native ω-Avsp1a, 4.1 μM, HEK-293, whole-cell, -90 to -30 mV, room temperature (21–24 °C), pH 7.4, 5 mM CaCl2, n = 5, p < 0.001 vs. Cav3.1 and Cav3.3, read-out: current inhibition",25%
same,inhibition at 25 µM,"[4]; HEK293, synthetic ω-Avsp1a, 25 μM (section 3.6), read-out: current inhibition",31%
same,solubility,[5],limited solubility
same,inhibition at 4.1 µM,"[6]; HEK293, pH 7.4, native ω-Avsp1a, 4.1 μM, HEK-293, whole-cell, -90 to -20 mV, room temperature (21–24 °C), pH 7.4, 5 mM CaCl2, n = 3, read-out: current inhibition",90%
same,inhibition at 10 µM,"[6]; HEK293, synthetic ω-Avsp1a, 10 μM, HEK-293, whole-cell, -90 to -20 mV, n = 9, read-out: current inhibition",90%
same,IC50,[6]; [7],4.32 ± 1.21 µM
